Source: patent US20260201438A1 (priority 2022, published 2026)
Converted amounts (≈) assume the structure as drawn.

How the values were obtained:
[1] = tested on: E. coli ATCC 25922; settings: CLSI M100-Ed35; cited from earlier work
[2] = tested on: S. aureus ATCC 29213; settings: CLSI M100-Ed35; cited from earlier work
[3] = tested on: E. coli ATCC 25922; experiment: reference broth microdilution (rBMD); type: cell-based; settings: Escherichia coli, ATCC25922, read-out: MIC rBMD, E. coli ATCC 25922, isolates from urine cultures; geometric mean, n = 3

SMILES	MIC CLSI QC Range [1]	MIC CLSI QC Range [2]	MIC [3]
CO/N=C(\C(=O)N[C@@H]1C(=O)N2C(C(=O)O)=C(CSc3nc(=O)c(=O)[nH]n3C)CS[C@H]12)c1csc(N)n1 [Ceftriaxone]	0.03 to 0.12 µg/mL	1.0 to 8.0 µg/mL	
CO/N=C(\C(=O)N[C@@H]1C(=O)N2C(C(=O)O)=C(COC(N)=O)CS[C@H]12)c1ccco1 [Cefuroxime]	2.0 to 8.0 µg/mL		
C[C@@H](O)[C@H]1C(=O)N2C(C(=O)O)=C(S[C@@H]3CN[C@H](C(=O)N(C)C)C3)[C@H](C)[C@H]12 [Meropenem]	0.008 to 0.06 µg/mL	0.03 to 0.12 µg/mL	
CO[C@@]1(NC(=O)Cc2cccs2)C(=O)N2C(C(=O)O)=C(COC(N)=O)CS[C@@H]21 [Cefoxitin]		1.0 to 4.0 µg/mL	
Cc1nnc(SCC2=C(C(=O)O)N3C(=O)[C@@H](NC(=O)Cn4cnnn4)[C@H]3SC2)s1 [Cefazolin]			2 µg/mL (≈ 4.4 µM)
